In US11041000B2, “Peptide inhibitors of interleukin-23 receptor and their use to treat inflammatory diseases” (priority 2019, dated 2021):
pIC50: −log10 of the molar value. Numbered stars: 1 amine (or outer) side, 2 acyl side, 3 side chain; on linkers, the order of the positions; unused ones are H or OH. Bridge positions count the residues as written; N and C are the ends. Square brackets hold non-standard residues; d marks the D form. Peptide text beside a SMILES is read from it. Trp(7-Me) = Cc1cccc2c(C[C@H](N)C(=O)O)c[nH]c12; Abu(4-yl) = O=C([C@H](CC[*:3])N[*:1])[*:2]; 2Nal = N[C@@H](Cc1ccc2ccccc2c1)C(=O)O; AEF = NCCOc1ccc(C[C@H](N)C(=O)O)cc1; Cit = NC(=O)NCCC[C@H](N)C(=O)O; Pen = CC(C)(S)[C@H](N)C(=O)O; αMeK = C[C@](N)(CCCCN)C(=O)O; Aib = CC(C)(N)C(=O)O; βAla = NCCC(=O)O

Assays:
[1] = Stability in simulated gastric fluid (SGF); assay type: in vitro ADME; conditions: simulated gastric fluid with porcine pepsin, pH 2, 37° C., 20 μM peptide
[2] = molecular target: IL-23R-expressing DB cells (Homo sapiens, UniProt Q5VWK5); test: DB cells IL23R pSTAT3 cell assay (pStat3HTRF); assay type: cell-based; conditions: DB cells stimulated with IL-23 0.5 nM, 30 minutes, phospho-STAT3 in cell lysates; read-out: pStat3 HTRF
Text: Human ELISA indicates the IL23-IL23R competitive binding assay described below, Rat ELISA indicates the rat IL-23R competitive binding ELISA assay described below, and pStat3HTRF indicates the DB cells IL-23R pSTAT3 cell assay described below. The peptides depicted in Table E1 are cyclized via a disulfide bridge formed between two Pen residues in these peptides. The peptides depicted in Table E2 are cyclized via a thioether bond between the indicated amino acid residues. Table E2 provides an illustrative structure depicting thioether cyclization, which is indicated in the table by the term “cyclo,” with the cyclic region bracketed immediately following the term “cyclo.” For certain peptides, the residue Abu is present where indicated, whereas in other embodiments, e.g., those related to the non-cyclized form, the Abu may be referred to as a hSer(Cl) or homoSer residue. The petpides depicted in Table E3 are cyclized via a disulfide bridge formed between two Pen residues or a thioether bond between Abu and Cys.
IL-23 plays a central role in supporting and maintaining Th17 differentiation in vivo. This process is thought to be mediated primarily through the Signal Transducer and Activator of Transcription 3 (STAT3), with phosphorylation of STAT3 (to yield pSTAT3) leading to upregulation of RORC and pro-inflammatory IL-17. This cell assay examines the levels of pSTAT3 in IL-23R-expressing DB cells when stimulated with IL-23 in the presence of test compounds. Serial dilutions of test peptides and IL-23 (Humanzyme #HZ-1261) at a final concentration of 0.5 nM, were added to each well in a 96 well tissue culture plate (Corning #CLS3894). DB cells (ATCC #CRL-2289), cultured in RPMI-1640 medium (Thermo Scientific #11875093) supplemented with 10% FBS, were added at 5×10E5 cells/well and incubated for 30 minutes at 37° C. in a 5% CO2 humidified incubator. Changes in phospho-STAT3 levels in the cell lysates were detected using the Cisbio HTRF pSTAT3 (Tyr705) Cellular Assay Kit (Cisbio #62AT3PEH), according to manufacturer's Two Plate Assay protocol.

[3] = Stability in simulated intestinal fluid (SIF); assay type: in vitro ADME; conditions: simulated intestinal fluid with pancreatin, pH 6.8, 37° C., matrix is 100 fold dilution of standard SIF concentration; for half-life at 20 μM: read-out: SIF t½ (converted)
[4] = Stability in human fecal homogenate; assay type: in vitro ADME; conditions: 20% fecal homogenate (supernatant), pH 6.8, 20% human fecal homogenate, anaerobic, 37° C., read-out: t½: Human Feces anaerobic (converted)
Description: (§1) Centrifuged the homogenate at 2800×g for 15 min. The supernatant is taken out and used for incubations. […] The final test compound concentration was 20 μM.

[5] = Stability in cynomolgus monkey fecal homogenate; assay type: in vitro ADME; conditions: 20% fecal homogenate (supernatant), anaerobic, pH 6.8, 20% cynomolgus monkey fecal homogenate, 37° C., read-out: t½: Monkey Feces anaerobic (converted)
Description: as §1

Stability in rat plasma = assay type: in vitro ADME; conditions: both sexes, SD rat plasma, EDTA, 37° C., read-out: t½: Rat Plasma EDTA (converted)
[6] = system: Natural killer (NK) cells; test: NK cell based assay (IL-23-induced IFNγ); conditions: primary human NK cells, IL-23 plus IL-18 10 ng/mL, IFNγ in supernatant after 20 to 24 hours
Description: Natural killer (NK) cells, purified from human peripheral blood of healthy donors by negative selection (Miltenyi Biotech, Cat #130-092-657), were cultured in complete media (RPMI 1640 containing 10% FBS, L-glutamine and penicillin-streptomycin) in the presence of IL-2 (RnD, Cat #202-IL-010/CF) at 25 ng/mL. After 7 days, cells were centrifuged, and resuspended in complete media at 1E6 cells/mL. […] After 20 to 24 hours, IFNγ in the supernatant was quantified using Quantikine ELISA (RnD, Cat #DIF50).

Sequence of IL-23R-expressing DB cells (Q5VWK5 24-629 limits assumed): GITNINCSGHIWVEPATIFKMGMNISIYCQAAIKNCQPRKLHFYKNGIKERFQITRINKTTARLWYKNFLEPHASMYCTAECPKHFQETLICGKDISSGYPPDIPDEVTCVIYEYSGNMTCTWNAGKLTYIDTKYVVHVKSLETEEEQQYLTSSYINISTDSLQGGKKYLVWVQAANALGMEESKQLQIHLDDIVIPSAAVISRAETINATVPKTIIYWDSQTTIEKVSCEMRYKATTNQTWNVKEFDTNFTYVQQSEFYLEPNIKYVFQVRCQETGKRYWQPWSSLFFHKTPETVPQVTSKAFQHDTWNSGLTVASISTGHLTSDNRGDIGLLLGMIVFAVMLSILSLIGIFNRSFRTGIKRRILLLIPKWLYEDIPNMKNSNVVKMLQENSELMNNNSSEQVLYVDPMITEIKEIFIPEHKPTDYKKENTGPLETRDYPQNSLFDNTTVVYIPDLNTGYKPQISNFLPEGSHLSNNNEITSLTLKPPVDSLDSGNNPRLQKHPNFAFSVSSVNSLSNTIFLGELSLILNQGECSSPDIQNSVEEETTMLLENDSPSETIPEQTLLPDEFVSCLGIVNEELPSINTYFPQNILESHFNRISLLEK

| SGF t½ [1] [h] | half-life at 20 μM [5] [h] | Structure (SMILES) | pIC50 [2] | half-life at 20 μM [3] [h] | half-life at 20 μM [4] [h] | half-life at 20 μM ([5]; cynomolgus monkey) [h] | half-life at 20 μM (Stability in rat plasma) [h] | pIC50 [6] | SIF t½ ([3]; 20 μM) [h] |
| --- | --- | --- | --- | --- | --- | --- | --- | --- | --- |
| 24 |  | CC(=O)NCCCC[C@H](NC(=O)[C@](C)(CCCCN)NC(=O)[C@H](Cc1ccc2ccccc2c1)NC(=O)[C@H](Cc1ccc(OCCN)cc1)NC(=O)[C@H]1NC(=O)[C@H](CCCNC(N)=O)NC(=O)[C@H](Cc2c[nH]c3c(C)cccc23)NC(=O)[C@H]([C@@H](C)O)NC(=O)[C@H](CC(N)=O)NC(=O)[C@@H](NC(C)=O)C(C)(C)SSC1(C)C)C(=O)N[C@@H](CC(N)=O)C(=O)NC(C)(C)C(N)=O [compound 264] (Ac-[Pen]NT[Trp(7-Me)][Cit][Pen][AEF][2Nal][αMeK]K(Ac)N[Aib]-NH2; disulfide 1-6) |  |  |  |  |  |  |  |
|  |  | CC(=O)NCCCC[C@@H]1NC(=O)[C@H](Cc2c[nH]c3c(C)cccc23)NC(=O)[C@H]([C@@H](C)O)NC(=O)[C@H](CCC(N)=O)NC(=O)[C@@H](NC(=O)[C@@H](CCCNC(=N)N)NC(C)=O)CCSC[C@@H](C(=O)N[C@@H](Cc2ccc(OCCN)cc2)C(=O)N[C@@H](Cc2ccc3ccccc3c2)C(=O)N[C@@](C)(CCCCN)C(=O)N[C@@H](CCCCNC(C)=O)C(=O)N[C@@H](CC(N)=O)C(=O)N[C@H](CC(C)C)C(N)=O)NC1=O [compound 325] (Ac-[dR][Abu(4-yl)]QT[Trp(7-Me)]K(Ac)C[AEF][2Nal][αMeK]K(Ac)N[dL]-NH2; thioether 2-7) | 8.35 | 14 | > 24 | 22 | > 24 |  |  |
|  | > 24 | CC(=O)NCCCC[C@@H]1NC(=O)[C@H](Cc2c[nH]c3c(C)cccc23)NC(=O)[C@H]([C@@H](C)O)NC(=O)[C@H](CC(N)=O)NC(=O)[C@@H](NC(C)=O)C(C)(C)SSC(C)(C)[C@@H](C(=O)N[C@@H](Cc2ccc(OCCN)cc2)C(=O)N[C@@H](Cc2ccc3ccccc3c2)C(=O)N[C@@](C)(CCCCN)C(=O)N[C@@H](CCCCNC(=O)C2CCCCC2)C(=O)N[C@@H](CC(N)=O)C(=O)N[C@H](CC(C)C)C(N)=O)NC1=O [compound 357] |  | 14 | > 24 |  | > 24 | 8.42 |  |
|  |  | CC(=O)NCCCC[C@@H]1NC(=O)[C@H](Cc2c[nH]c3c(C)cccc23)NC(=O)[C@H]([C@@H](C)O)NC(=O)[C@H](CC(N)=O)NC(=O)[C@@H](NC(C)=O)C(C)(C)SSC(C)(C)[C@@H](C(=O)N[C@@H](Cc2ccc(OCCN)cc2)C(=O)N[C@@H](Cc2ccc3ccccc3c2)C(=O)N[C@@](C)(CCCCN)C(=O)N[C@@H](CCCCNC(C)=O)C(=O)N[C@@H](CC(N)=O)C(=O)N[C@H](Cc2ccccc2)C(N)=O)NC1=O [compound 258] | 9.04 | 14 | > 24 | > 24 | > 24 |  |  |
|  |  | CC(=O)N[C@@H]1C(=O)N[C@@H](CC(N)=O)C(=O)N[C@@H]([C@@H](C)O)C(=O)N[C@@H](Cc2c[nH]c3c(C)cccc23)C(=O)N[C@@H](CCCNC(N)=O)C(=O)N[C@H](C(=O)N[C@@H](Cc2ccc(OCCN)cc2)C(=O)N[C@@H](Cc2ccc3ccccc3c2)C(=O)N[C@@](C)(CCCCN)C(=O)N[C@@H](CCCNC(N)=O)C(=O)NCCC(=O)NCCC(N)=O)C(C)(C)SSC1(C)C [compound 281] (Ac-[Pen]NT[Trp(7-Me)][Cit][Pen][AEF][2Nal][αMeK][Cit][βAla][βAla]-NH2; disulfide 1-6) | 7.75 | 14 | > 24 | > 24 | > 24 |  |  |
|  |  | CC(=O)NCCCC[C@H](NC(=O)[C@](C)(CCCCN)NC(=O)[C@H](Cc1ccc2ccccc2c1)NC(=O)[C@H](Cc1ccc(OCCN)cc1)NC(=O)[C@H]1NC(=O)[C@H](CCCCNC(=O)C(C)(C)N)NC(=O)[C@H](Cc2c[nH]c3c(C)cccc23)NC(=O)[C@H]([C@@H](C)O)NC(=O)[C@H](CC(N)=O)NC(=O)[C@@H](NC(C)=O)C(C)(C)SSC1(C)C)C(=O)N[C@@H](CC(N)=O)C(=O)N[C@H](CC(C)C)C(N)=O [compound 322] | 9.19 |  | > 24 | > 24 | > 24 |  | 24 |
